Results taken from patent publication US4868117A, “BBM-1675, a new antitumor antibiotic complex” (Bristol-Myers Company, priority 1985, dated 1989).
Where “and” joins values, the source holds several entries; their conditions need not be identical. Identical values can stand only once. Like-named read-outs stand apart in the source and are kept apart here.

What was measured:
L-1210 leukemia [1] = test: Intravenously implanted L-1210 leukemia, i.v. treatment; details: days 1, 4 and 7, lines in dose order as in E71 (Adriamycin starts with 16)
Procedure: (§1) Lymphocytic leukemia P-388, lymphoid leukemia L-1210, melanotic melanoma B16 and Lewis lung carcinoma were implanted intraperitoneally into male BDF1 mice at an inoculum size of 10^6, 10^5, 5×10^5 and 10^6 cells per mouse, respectively. Graded doses of test compounds were administered to the mice intraperitoneally 24 hours after the tumor inoculation.
(§2) Death or survival of the treated and non-treated mice was recorded daily, and the median survival time (MST) was calculated for each of the test (T) and control (C) groups. […] Second experiments were carried out by intravenous administration of BBM-1675 components against P-388 and L-1210 leukemias, which were inoculated intravenously at 5×10^5 and 10^4 cells per mouse, respectively.

P-388 leukemia [2] = test: Intravenously implanted P-388 leukemia, i.v. treatment; details: days 1, 4 and 7, lines in dose order as in E66 (Adriamycin starts with 30)
Procedure: as §1, §2

male ddY mice = test: Toxicity (LD50) in male ddY mice; details: multiple dose (qd 1→9), i.p.
P-388 leukemia [3] = details: for Therapeutic index, LD50/MED: MED = minimum effective dose
Procedure: as §1, §2

L-1210 leukemia [4] = details: i.p., qd 1→9
Procedure: as §1
(§3) Death or survival of the treated and non-treated mice was recorded daily, and the median survival time (MST) was calculated for each of the test (T) and control (C) groups.

[5] = i.p., qd 1→9, lines in dose order as in E48
[6] = i.p., qd 1→11, lines in dose order as in E53

Procedure for B16 melanoma: as §1, §3
Procedure for Lewis lung carcinoma: as §1, §3

With `COc1cccc2c1C(=O)c1c(O)c3c(c(O)c1C2=O)C[C@@](O)(C(=O)CO)C[C@@H]3O[C@H]1C[C@H](N)[C@H](O)[C@H](C)O1` [Adriamycin, adriamycin] the “Survivors on day 5” value (L-1210 leukemia [1]) was 2/6 and 6/6, the “Survivors on day 45” value (L-1210 leukemia [1]) was 0/6 and the “Survivors on day 5” value (P-388 leukemia [2]) was 0/6 and 6/6. The “Survivors on day 45” value (P-388 leukemia [2]) was 0/6.
In the case of `CO[C@@H]1[C@H](O)C[C@@H](O[C@@H]2C[C@H](Oc3cc4cc5c(c(O)c4c(O)c3C)C(=O)[C@@H](O[C@H]3C[C@@H](O[C@H]4C[C@@H](O[C@H]6C[C@](C)(O)[C@@H](OC(C)=O)[C@H](C)O6)[C@H](O)[C@@H](C)O4)[C@H](O)[C@@H](C)O3)[C@H]([C@H](OC)C(=O)[C@@H](O)[C@@H](C)O)C5)O[C@H](C)[C@@H]2OC(C)=O)O[C@@H]1C` [Chromomycin A3, chromomycin A3], the LD50 (male ddY mice) was 0.23 mg/kg/day, the “Therapeutic index, LD50/MED” value (B16 melanoma; B16, MED = minimum effective dose) was 23 and the MST (B16 melanoma; [5]) was 23.0 days and 21.0 days. For the same compound, the “Survivors on day 5” value (B16 melanoma; [5]) was 6/6, the “Survivors on day 45” value (B16 melanoma; [5]) was 0/6 and the MST (B16 melanoma; mouse, in vivo, ip) was 18.0. For the same compound, the “Therapeutic index, LD50/MED” value (P-388 leukemia [3]; P-388, qd 1→9) was 8, the “Therapeutic index, LD50/MED” value (P-388 leukemia [3]; P-388, single) was 8 and the “Survivors on day 45” value (P-388 leukemia [3]; mouse, in vivo, ip) was 0/5 and 1/5. For the same compound, the “Therapeutic index, LD50/MED” value (Lewis lung carcinoma; LL, MED = minimum effective dose) was 23, the “Survivors on day 5” value (Lewis lung carcinoma; [6]) was 6/6 and 5/5 and the “Survivors on day 45” value (Lewis lung carcinoma; [6]) was 1/6 and 0/6. For the same compound, the MST (Lewis lung carcinoma; mouse, in vivo, ip) was 17.0, the “Survivors on day 45” value (Lewis lung carcinoma; mouse, in vivo, ip) was 0/5 and the MST (L-1210 leukemia [4]; lines in dose order as in E43) was 8.5 days and 11.0 days and 10.0 days. The “Survivors on day 5” value (L-1210 leukemia [4]; lines in dose order as in E43) was 6/6, the “Survivors on day 45” value (L-1210 leukemia [4]; lines in dose order as in E43) was 0/6 and the T/C (L-1210 leukemia [4]; ≥[…] significant, mg/kg/day in line order: A1 0.003,0.001,0.0003,0.0001, A2 0.03,0.01,0.003,0.001,0.0003, chromomycin A3 0.3,0.1,0.03,0.01,0.003) was 89%.
